Experiments:
[1] = Acute toxicity, oral, LD50 (Litchfield and Wilcoxon); conditions: mouse, in vivo, fasted male mice, confidence limits p=95% in brackets
Description: (1) The acute toxicity was determined on fasted male mice. The tested substances were orally administered and LD50 values (lethal dose for 50% of animals) were calculated according to the method of Litchfield and Wilcoxon (J. Pharmacol. exp. Ther. 96, 94-113, 1949). These LD50 values are given in mg/kg and also, when possible, with their confidence limits for p=95%.

[2] = test system: femoral artery; assay: Vasodilator activity, femoral artery (technique of perfused paw); type: in vivo; design: key: O: no action; +: slight activity; ++: effect equal to half the effect of papaverine; +++: effect equal to that of papaverine; ++++: effect higher than that of papaverine; conditions: intra-arterial, 30 mg/kg, anaesthetized dog, vs papaverine at same dose
Description: (3) The vasodilator activity was measured at the level of femoral artery on anaesthetized dog (technique of perfused paw). The tested substances were given intra-arterially at the rate of 30 mg/kg. Results are expressed with respect to papaverine tested at the same dose.
++: effect equal to half the effect of papaverine.
+++: effect equal to that of papaverine.
++++: effect higher than that of papaverine.

[3] = test system: guinea-pig ileum (histamine contractions); assay: Antispasmodic activity in vitro, contractions caused by histamine; conditions: added 15 minutes before spasm-producing agent
Description: (§1) (4) The antispasmodic activity was measured in vitro, on guinea-pig ileum, the contractions of which were caused by histammne (Hist.), acetylcholine (Achol) or barium chloride (BaCl2). The tested products were added to perfusion bath 15 minutes before the spasm-producing agents.
(§2) The dose is given in micograms (μg) per ml of bath causing complete spasm inhibition.

[4] = test system: guinea-pig ileum (acetylcholine contractions); assay: Antispasmodic activity in vitro, contractions caused by acetylcholine; conditions: added 15 minutes before spasm-producing agent
Description: as §1, §2

Row | SMILES | LD50 [1] | VASODILATOR ACTIVITY [2] | ANTISPASMODIC ACTIVITY HIST. (dose causing complete spasm inhibition) [3] | ANTISPASMODIC ACTIVITY ACHOL (dose causing complete spasm inhibition) [4]
1 | CCCCCCCCNC(C)C(O)c1ccc2c(c1)CC(C)S2 (centres unmarked) [No 18] | 3350 mg/kg | – | – | –
2 | CCCCCCCCNC(CC)C(O)c1ccc2c(c1)CCCS2 (centres unmarked) [No 128] | > 4000 mg/kg | – | – | –
3 | CCCCSCCCNC(C)C(O)c1ccc2c(c1)CCS2 (centres unmarked) [No 125] | 3400 mg/kg | ++ | 1.7 μg per ml | –
4 | CC(NCCOc1ccc2ccccc2c1)C(O)c1ccc2c(c1)CCCS2 (centres unmarked) [No 88] | > 4000 mg/kg | +++ | 1.7 μg per ml | 1.7 μg per ml
5 | CC(NC1CCCCC1)C(O)c1ccc2c(c1)CCCS2 (centres unmarked) [No 41] | – | – | 8.3 μg per ml | 8.3 μg per ml
6 | COC(=O)CCCCCCCCCCNC(C)C(O)c1ccc2c(c1)CCCS2 (centres unmarked) [No 73] | > 4000 mg/kg | +++ | 3.3 μg per ml | 1.7 μg per ml
7 | COc1ccc(OCCNC(C)C(O)c2ccc3c(c2)CC(C)S3)cc1 (centres unmarked) [No 66] | – | ++ | 1.7 μg per ml | 3.3 μg per ml
8 | CC(=O)Nc1ccc(OCCNC(C)C(O)c2ccc3c(c2)CCCS3)cc1 (centres unmarked) [No 87] | – | +++ | 8.3 μg per ml | 16.7 μg per ml
9 | CCCCCCCCNC(C)C(OC(=O)CCCCCCC)c1ccc2c(c1)CCCS2 (centres unmarked) [No 136] | > 4000 mg/kg | – | – | –
10 | CC(NCCOc1ccc(C(C)(C)C)cc1)C(O)c1ccc2c(c1)CCC2 (centres unmarked) [No 176] | > 4000 mg/kg | +++ | 0.17 μg per ml | 0.8 μg per ml
11 | CC(NCCCN1CCCC1)C(O)c1ccc2c(c1)CCCS2 (centres unmarked) [No 59] | 1120 mg/kg | +++ | 3.3 μg per ml | 3.3 μg per ml
12 | CC(NCCCCc1ccccc1)C(O)c1ccc2c(c1)CCS2 (centres unmarked) [No 7, 1-(2,3-dihydro-5-benzo[b]thienyl)-2-(4-phenylbutylamino)-1-propanol] | 860 mg/kg | – | – | –
13 | CC(NCCOc1ccc(C(C)(C)C)cc1)C(O)c1ccc2c(c1)CCCS2 (centres unmarked) [No 107] | > 4000 mg/kg | +++ | 0.8 μg per ml | 0.8 μg per ml
14 | CCCCCCCCNC(C)C(O)c1ccc2c(c1)CC(C)CS2 (centres unmarked) [No 43] | 3300 mg/kg | +++ | 0.8 μg per ml | 1.7 μg per ml
15 | CC(NC1CC1)C(O)c1ccc2c(c1)CCCS2 (centres unmarked) [No 51] | – | ++ | 8.3 μg per ml | 16.7 μg per ml
16 | CC(=O)Nc1ccc(OCCNC(C)C(O)c2ccc3c(c2)CCS3)cc1 (centres unmarked) [No 86] | 1420 mg/kg | +++ | 1.7 μg per ml | 16.7 μg per ml
17 | CCCCCCCCNC(C)C(O)c1ccc2c(c1)SCCO2 (centres unmarked) [No 121] | – | +++ | 0.8 μg per ml | –
18 | CCCCOCCOCCCNC(C)C(O)c1ccc2c(c1)CCCS2 (centres unmarked) [No 72] | 880 mg/kg | ++ | 1.7 μg per ml | 1.7 μg per ml
19 | CC(NCCOc1ccc2c(c1)CCC2)C(O)c1ccc2c(c1)CCCS2 (centres unmarked) [No 83] | > 4000 mg/kg | +++ | 1.7 μg per ml | 0.8 μg per ml
20 | CC(NCCOc1ccc(NS(C)(=O)=O)cc1)C(O)c1ccc2c(c1)CCS2 (centres unmarked) [No 103] | – | – | 3.3 μg per ml | 16.7 μg per ml
21 | CC(NC12CC3CC(CC(C3)C1)C2)C(O)c1ccc2c(c1)CCCS2 (centres unmarked) [No 52] | – | +++ | 1.7 μg per ml | 1.7 μg per ml

Row | SMILES | LD50 [1] | VASODILATOR ACTIVITY [2] | ANTISPASMODIC ACTIVITY HIST. (dose causing complete spasm inhibition) [3] | ANTISPASMODIC ACTIVITY ACHOL (dose causing complete spasm inhibition) [4]
22 | CC(C(O)c1ccc2c(c1)CCC2)N1CCC(c2ccccc2)CC1 (centres unmarked) [No 174] | 2150 mg/kg | +++ | 0.8 μg per ml | –
23 | Cc1ccc(OCCNC(C)C(O)c2ccc3c(c2)CC(C)S3)cc1 (centres unmarked) [No 79] | – | – | 1.7 μg per ml | 0.8 μg per ml
24 | CCCCOCCCNC(C)C(O)c1ccc2c(c1)CCCS2 (centres unmarked) [No 50] | 900 mg/kg | +++ | 1.7 μg per ml | 1.7 μg per ml
25 | COc1ccc(OCCNC(C)C(O)c2ccc3c(c2)CCCS3)cc1 (centres unmarked) [No 53] | > 4000 mg/kg | +++ | 3.3 μg per ml | 1.7 μg per ml
26 | COC(=O)c1ccc(OCCNC(C)C(O)c2ccc3c(c2)CCCS3)cc1 (centres unmarked) [No 114] | > 2000 mg/kg | +++ | 0.8 μg per ml | 3.3 μg per ml
27 | CC(C(O)c1ccc2c(c1)CCCS2)N1CCC(c2ccccc2)CC1 (centres unmarked) [No 91] | – | +++ | 0.8 μg per ml | 1.7 μg per ml
28 | CC(C)NC(C)C(O)c1ccc2c(c1)CCCCS2 (centres unmarked) [No 38] | 240 mg/kg | ++ | 3.3 μg per ml | 8.3 μg per ml
29 | CC(CCCc1ccccc1)NC(C)C(O)c1ccc2c(c1)CCC2 (centres unmarked) [No 173] | 2600 mg/kg | ++ | 0.8 μg per ml | 0.8 μg per ml
30 | CC(NCCCN1CCCC1=O)C(O)c1ccc2c(c1)CCCS2 (centres unmarked) [No 77] | 235 mg/kg | 0 | 0.8 μg per ml | 1.7 μg per ml
31 | CC(CCCc1ccccc1)NC(C)C(O)c1ccc2c(c1)CCS2 (centres unmarked) [No 63] | 1850 mg/kg | ++ | 0.8 μg per ml | 0.8 μg per ml
32 | CC(NCCCCc1ccccc1)C(OC(=O)C(C)(C)C)c1ccc2c(c1)CCS2 (centres unmarked) [No 99] | – | – | 8.3 μg per ml | 1.7 μg per ml
33 | CC(NCCCN1CCNC1=O)C(O)c1ccc2c(c1)CCCS2 (centres unmarked) [No 56] | – | ++ | > 16.7 μg per ml | > 16.7 μg per ml
34 | CC(NCCOCc1ccccc1)C(O)c1ccc2c(c1)CCCS2 (centres unmarked) [No 46] | 4000 mg/kg | +++ | 8.3 μg per ml | 3.3 μg per ml
35 | CC(C)NC(C)C(O)c1ccc2c(c1)CCS2 (centres unmarked) [No 33] | 355 mg/kg | +++ | 16.7 μg per ml | 16.7 μg per ml
36 | CC(NCCCCc1ccccc1)C(O)c1ccc2c(c1)CCCCS2 (centres unmarked) [No 12, 1-(2,3,4,5-tetrahydrobenzo[b]thiepin-7-yl)-2-(4-phenylbutylamino)-1-propanol] | 5200 mg/kg | – | – | –
37 | CC(NCCCCSc1ccccc1)C(O)c1ccc2c(c1)CCS2 (centres unmarked) [No 31] | > 4000 mg/kg | – | 0.17 μg per ml | 1.7 μg per ml
38 | CC1CSc2ccc(C(O)C(C)NCCCc3ccccc3)cc2C1 (centres unmarked) [No 48] | > 4000 mg/kg | – | 0.8 μg per ml | 1.7 μg per ml
39 | CCCCSCCCNC(C)C(O)c1ccc2c(c1)SCCO2 (centres unmarked) [No 124] | – | ++ | 1.7 μg per ml | –
40 | CCCCCCCCNC(CC)C(O)c1ccc2c(c1)CCS2 (centres unmarked) [No 119] | 1800 mg/kg | ++++ | 0.3 μg per ml | –
41 | CC(CCCc1ccccc1)NC(C)C(O)c1ccc2c(c1)CC(C)O2 (centres unmarked) [No 82] | – | ++ | 0.3 μg per ml | 1.7 μg per ml

Source: patent US4638070A, “Heterocyclic amino-alcohol derivatives” (Continental Pharma, priority 1980, dated 1987)
